Results taken from patent US20080214399A1, “Enhanced amino acid formulations” (priority 2006, published 2008).

Tested on: cotton cotyledons
Assay: Cotton cotyledon bioassay: reduction of CPPU-induced ethylene production
Type: in vivo, cotton (variety SG 105)
Details: CPPU (200 μM) alone, reference = 1.00
Protocol: A cotton bioassay system has been used in the laboratory to study the effect of formulations on AVG performance. […] One spray application of CPPU (forchlorfenuron) is made to the bottom (abaxial) and AVG was subsequently applied to the top (adaxial) surface of the cotyledons. […] Water was used as the carrier. Further dilutions were prepared as needed for foliar applications. All the data was subject to an analysis of variance, and the mean separations were determined with Duncan's new multiple range test at α=0.05. The present invention may be illustrated by the following representative examples: […]

O=C(Nc1ccccc1)Nc1ccnc(Cl)c1 [CPPU, forchlorfenuron]
Reduction as compared to CPPU-treated: 1.00
